In general, pIC50 refers to −log10 of the IC50, conventionally taken in molar units. As a reminder, the IC50 is the concentration needed to halve the response being measured. Low values mean greater potency, high ones weaker potency.

pIC50: −log10 of the molar value. Where only a bound is given, the exact number is not on record here.

For 68 molecules, IC50 results are on record in patent US12448368B2, “Indole compounds as androgen receptor modulators” (NIDO BIOSCIENCES, INC., priority 2020, dated 2025).

The first assay deals with T1, androgen receptor (AR) (Homo sapiens, UniProt P10275, T878A).
T1 construct: LNCaP cells expressing ARR2PB-FireflyLuc and CMV-RenillaLuc; endogenous in cells; host or cells: LNCaP cells carrying ARR2PB-FireflyLuc and CMV-RenillaLuc reporters
T1 sequence (P10275 1-920 T878A): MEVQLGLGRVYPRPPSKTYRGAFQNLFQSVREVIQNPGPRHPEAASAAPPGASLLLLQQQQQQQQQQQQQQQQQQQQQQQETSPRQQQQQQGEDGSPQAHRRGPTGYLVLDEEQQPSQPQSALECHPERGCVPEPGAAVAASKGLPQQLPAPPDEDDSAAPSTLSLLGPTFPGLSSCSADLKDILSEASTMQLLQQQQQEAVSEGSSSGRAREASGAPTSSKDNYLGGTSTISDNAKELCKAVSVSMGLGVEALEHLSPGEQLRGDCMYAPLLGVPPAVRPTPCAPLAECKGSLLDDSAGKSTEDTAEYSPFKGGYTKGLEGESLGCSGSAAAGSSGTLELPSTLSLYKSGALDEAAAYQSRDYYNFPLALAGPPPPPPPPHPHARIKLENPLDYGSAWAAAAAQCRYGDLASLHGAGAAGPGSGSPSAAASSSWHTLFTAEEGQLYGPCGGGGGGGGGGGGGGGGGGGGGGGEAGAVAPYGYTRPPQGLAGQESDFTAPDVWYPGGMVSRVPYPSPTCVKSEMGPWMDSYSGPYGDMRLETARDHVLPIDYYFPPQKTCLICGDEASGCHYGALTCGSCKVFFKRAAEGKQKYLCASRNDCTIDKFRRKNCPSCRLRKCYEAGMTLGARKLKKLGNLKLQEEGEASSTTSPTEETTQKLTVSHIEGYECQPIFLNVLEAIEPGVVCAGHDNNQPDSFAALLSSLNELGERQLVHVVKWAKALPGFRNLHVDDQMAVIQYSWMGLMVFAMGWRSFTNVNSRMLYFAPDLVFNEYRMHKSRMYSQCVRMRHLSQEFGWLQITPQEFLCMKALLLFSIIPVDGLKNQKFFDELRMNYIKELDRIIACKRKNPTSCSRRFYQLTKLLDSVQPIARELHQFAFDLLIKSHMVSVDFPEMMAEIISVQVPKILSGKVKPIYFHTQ
The experiment in a line: AR reporter assay in LNCaP cells expressing ARR2PB-FireflyLuc and CMV-RenillaLuc, antagonist mode (% remaining activity, IC50). The class given is cell-based. As to conditions: 48 h at 37° C., class symbols A-D, read-out: IC50. As for the experimental part: LNCaP cells expressing ARR2PB-FireflyLuc and CMV-RenillaLuc were treated with indicated concentrations of test compounds, enzalutamide (negative control), or DHT (positive control)+/−0.5 nM DHT for 48 h at 37° C. […] Remaining activity (antagonist mode) was calculated as % Remaining Activity=100×[(Readsample−LCave)/(HCave−LCave)] where HC is cells treated with 0.5 nM DHT only and LC is cells treated with 10 uM enzalutamide+0.5 nM DHT. Activation (agonist mode) was calculated as % Activation=100×[(ReadSample−LCave)/(HCave−LCave)] where HC is cells treated with 1 uM DHT and LC is cells treated with DMSO. Dose response curves and IC50 values were calculated using non-linear regression analysis in XLfit.
The designation “A” indicates an IC50 value of >10 μM, “B” indicates an IC50 value between 1 μM and 10 μM; “C” indicates an IC50 value between 100 nM and 1 μM; and “D” indicates an IC50 value of less than 100 nM.
(A reporter such as luciferase makes a cellular process visible.)
As to `Fc1cc2[nH]nc(-c3ccc4c(n3)OCCN4)c2cc1F` [Compound 69], the negative-log IC50 (pIC50) was under 5.00.

For the molecule `CC1CNc2ccc(-c3n[nH]c4cc(F)c(F)cc34)nc2O1` (centres unmarked) [Compound 70], the negative-log IC50 (pIC50) is under 5.00.

For `CC1(C)NCc2ccc(-c3n[nH]c4cc(F)c(F)cc34)nc21` [Compound 71], the pIC50 is under 5.00.

Consider `CC(C)(O)c1ccc(-c2n[nH]c3cc(F)c(F)cc23)nc1` [Compound 72], for which the pIC50 was under 5.00.

With `CC(C)(O)c1ccc(-c2n[nH]c3cc(F)c(F)cc23)cn1` [Compound 73], the pIC50 is under 5.00.

For the molecule `Fc1cc2[nH]nc(-c3ccc4c(n3)NCCO4)c2cc1F` [Compound 74], the pIC50 was 5.00 to 6.00.

Turning to `CN1CCOc2ccc(-c3n[nH]c4cc(F)c(F)cc34)nc21` [Compound 75], the negative-log IC50 (pIC50) is 5.00 to 6.00.

As for `CC(C)N1CCOc2ccc(-c3n[nH]c4cc(F)c(F)cc34)nc21` [Compound 76], the pIC50 is 5.00 to 6.00.

As for `CC1(C)CCNc2ccc(-c3n[nH]c4ccccc34)nc21` [Compound 77], the negative-log IC50 (pIC50) is 6.00 to 7.00.

Consider `CC1(C)CCNc2ccc(-c3n[nH]c4ccc(F)cc34)nc21` [Compound 78], for which the pIC50 is 6.00 to 7.00.

As to `CCOC(=O)c1coc(-c2n[nH]c3c(C)cccc23)n1` [Compound 79], the negative logarithm of the IC50 (pIC50) was under 5.00.

As to `Cc1cc(-c2n[nH]c3cc(F)c(F)cc23)nc2c1NC(=O)CC2` [Compound 80], the pIC50 was 5.00 to 6.00.

On to `c1ccc(-c2cc(-c3ccc4c(n3)CCCN4)n[nH]2)cc1` [Compound 81], for which the pIC50 is under 5.00.

For `Cc1[nH]nc(-c2ccc3c(n2)CCCN3)c1C` [Compound 82], the pIC50 was under 5.00.

Regarding `c1cc2c(nc1-c1n[nH]c3c1COCC3)CCCN2` [Compound 83], the negative-log IC50 (pIC50) is under 5.00.

As to `c1ccc(-c2cc(-c3ccc4c(n3)CCCN4)n[nH]2)nc1` [Compound 84], the pIC50 is under 5.00.

Regarding `N#Cc1cccc2c(-c3ccc4ncccc4n3)nn(C3CCCCO3)c12` (centres unmarked) [Compound 85], the pIC50 was under 5.00.

Take `NCc1cccc2c(-c3ccc4ncccc4n3)n[nH]c12` [Compound 86]: the negative logarithm of the IC50 (pIC50) is 6.00 to 7.00.

For `CC(C)NCc1cccc2c(-c3ccc4ncccc4n3)n[nH]c12` [Compound 87], the pIC50 is 5.00 to 6.00.

Regarding `CC(C)c1nc(-c2n[nH]c3cc(F)c(F)cc23)ccc1N` [Compound 88], the pIC50 was 5.00 to 6.00.

Consider `CC(C)Oc1nc(-c2n[nH]c3cc(F)c(F)cc23)ccc1N` [Compound 89], for which the negative logarithm of the IC50 (pIC50) was 5.00 to 6.00.

For the molecule `CCOc1nc(-c2n[nH]c3cc(F)c(F)cc23)ccc1N` [Compound 90], the negative-log IC50 (pIC50) is 5.00 to 6.00.

For the molecule `COc1nc(-c2n[nH]c3cc(F)c(F)cc23)ccc1N` [Compound 91], the pIC50 was 6.00 to 7.00.

As for `Nc1ccc(-c2n[nH]c3cc(F)c(F)cc23)nc1C(F)(F)F` [Compound 92], the pIC50 was 6.00 to 7.00.

Turning to `Nc1ccc(-c2n[nH]c3cc(F)c(F)cc23)nc1Cl` [Compound 93], the pIC50 was 6.00 to 7.00.

Consider `CNc1ccc(-c2n[nH]c3cc(F)c(F)cc23)nc1C` [Compound 94], for which the negative logarithm of the IC50 (pIC50) was 5.00 to 6.00.

Regarding `CCNc1ccc(-c2n[nH]c3cc(F)c(F)cc23)nc1C` [Compound 95], the pIC50 was 5.00 to 6.00.

For the molecule `CC(=O)Nc1ccc(-c2n[nH]c3cc(F)c(F)cc23)nc1C` [Compound 96], the negative-log IC50 (pIC50) is under 5.00.

Regarding `CC(=O)N(C)c1ccc(-c2n[nH]c3cc(F)c(F)cc23)nc1C` [Compound 97], the negative-log IC50 (pIC50) is under 5.00.

With `Cc1nc(-c2n[nH]c3cc(F)c(F)cc23)ccc1N(C)C` [Compound 98], the pIC50 is 5.00 to 6.00.

As for `COc1ccc(-c2n[nH]c3cc(F)c(F)cc23)nc1C` [Compound 99], the pIC50 was 6.00 to 7.00.

Consider `CNC(=O)c1ccc(-c2n[nH]c3cc(F)c(F)cc23)nc1C` [Compound 100], for which the pIC50 was under 5.00.

For the molecule `Cc1nc(-c2n[nH]c3cc(F)c(F)cc23)ccc1C(N)=O` [Compound 101], the pIC50 was under 5.00.

As for `Cc1nc(-c2n[nH]c3cc(F)c(F)cc23)ccc1C(=O)N(C)C` [Compound 102], the pIC50 is under 5.00.

Regarding `Cc1nc(-c2n[nH]c3cc(F)c(F)cc23)ccc1C#N` [Compound 103], the pIC50 is over 7.00.

Regarding `CC1c2nc(-c3n[nH]c4cc(F)c(F)cc34)ccc2C(=O)N1C` (centres unmarked) [Compound 104], the negative-log IC50 (pIC50) is 6.00 to 7.00.

`CC1NC(=O)c2ccc(-c3nn(C)c4cc(F)c(F)cc34)nc21` (centres unmarked) [Compound 105]: the pIC50 was under 5.00.

In the case of `COc1ccc(CN2C(=O)c3ccc(-n4ncc5cc(F)c(F)cc54)nc3C2C)cc1` (centres unmarked) [Compound 106], the negative-log IC50 (pIC50) is under 5.00.

As to `CC1NC(=O)c2ccc(-n3ncc4cc(F)c(F)cc43)nc21` (centres unmarked) [Compound 107], the pIC50 was under 5.00.

Take `CC1NC(=O)c2ccc(-n3cnc4cc(F)c(F)cc43)nc21` (centres unmarked) [Compound 108]: the negative-log IC50 (pIC50) was under 5.00.

`CC1NC(=O)c2ccc(-c3n[nH]c4ccccc34)cc21` (centres unmarked) [Compound 109]: the pIC50 was 6.00 to 7.00.

With `CC1(C)NC(=O)c2ccc(-c3n[nH]c4cc(F)c(F)cc34)cc21` [Compound 110], the negative-log IC50 (pIC50) is under 5.00.

Regarding `Fc1ccc(-c2n[nH]c3cc(F)ccc23)nc1` [Compound 111], the negative-log IC50 (pIC50) is 6.00 to 7.00.

In the case of `Fc1ccc(-c2n[nH]c3cccnc23)nc1` [Compound 112], the pIC50 is under 5.00.

For the molecule `Fc1ccc(-c2n[nH]c3ncccc23)cc1` [Compound 113], the pIC50 is 5.00 to 6.00.

Consider `O=C1NCc2nc(-c3n[nH]c4ccccc34)ccc21` [Compound 114], for which the pIC50 is 5.00 to 6.00.

As for `O=S1(=O)CCNc2ccc(-c3n[nH]c4cc(F)c(F)cc34)nc21` [Compound 115], the negative-log IC50 (pIC50) was under 5.00.

With `Fc1ccc(-c2n[nH]c3ncccc23)nc1` [Compound 116], the negative logarithm of the IC50 (pIC50) is 5.00 to 6.00.

Regarding `FC(F)(F)c1ccc(-c2c[nH]c3ccccc23)nc1` [Compound 118], the pIC50 was 6.00 to 7.00.

With `Fc1ccc(-c2c[nH]c3ccccc23)nc1` [Compound 119], the pIC50 was 6.00 to 7.00.

With `N#Cc1cccc2c(-c3ccc4ccc(F)cc4n3)c[nH]c12` [Compound 120], the pIC50 is over 7.00.

Consider `N#Cc1cccc2c(-c3ccc4c(n3)CCCN4)c[nH]c12` [Compound 121], for which the negative-log IC50 (pIC50) is over 7.00.

On to `CC1(C)NC(=O)c2ccc(-c3c[nH]c4cc(F)c(F)cc34)nc21` [Compound 122], for which the negative logarithm of the IC50 (pIC50) is 6.00 to 7.00.

Consider `CCOC(=O)c1coc(-c2c[nH]c3c(C)cccc23)n1` [Compound 123], for which the pIC50 is under 5.00.

Take `Cc1nc(-c2c[nH]c3cc(F)c(F)cc23)ccc1N` [Compound 124]: the negative logarithm of the IC50 (pIC50) is 5.00 to 6.00.

As to `Cc1nc(-c2c[nH]c3c(C#N)cccc23)ccc1N` [Compound 125], the negative-log IC50 (pIC50) was 6.00 to 7.00.

`Fc1ccc(-c2c[nH]c3ncccc23)nc1` [Compound 126]: the pIC50 was 6.00 to 7.00.

As for `N#Cc1cccc2c(-c3ccc(F)cn3)c[nH]c12` [Compound 127], the negative logarithm of the IC50 (pIC50) is over 7.00.

As for `c1cnc2[nH]cc(-c3ccc(C4CC4)cn3)c2c1` [Compound 128], the negative logarithm of the IC50 (pIC50) was 6.00 to 7.00.

On to `c1cnc2[nH]cc(-c3ccc(C4COC4)cn3)c2c1` [Compound 129], for which the pIC50 was 5.00 to 6.00.

Regarding `Cc1nc(-c2c[nH]c3c(C#N)cc(F)cc23)ccc1N` [Compound 130], the negative-log IC50 (pIC50) was 6.00 to 7.00.

Consider `Cc1nc(-c2c[nH]c3c(C#N)cc(F)cc23)ccc1F` [Compound 131], for which the pIC50 was over 7.00.

Regarding `N#Cc1cccc2c(-c3ccc(N)cn3)c[nH]c12` [Compound 132], the negative-log IC50 (pIC50) is 5.00 to 6.00.

Consider `Cc1cccc(-c2c[nH]c3c(C#N)cccc23)n1` [Compound 133], for which the pIC50 is 6.00 to 7.00.

With `Cc1nc(-c2c[nH]c3cccnc23)ccc1N` [Compound 134], the negative-log IC50 (pIC50) was under 5.00.

Turning to `Cc1nc(-c2c[nH]c3ncccc23)ccc1N` [Compound 135], the negative-log IC50 (pIC50) was 5.00 to 6.00.

For the molecule `CC1NC(=O)c2ccc(-c3c[nH]c4cc(F)c(F)cc34)nc21` (centres unmarked) [Compound 136], the negative logarithm of the IC50 (pIC50) was 6.00 to 7.00.

The same assay, now with this note: IC50 (μM), 48 h at 37° C., class symbols A-D.
Turning to `c1ccc2nc(-c3n[nH]c4ccccc34)ccc2c1` [Compound 117], the IC50 was 0.1 to 1 µM.
